Reference: patent US7057036B2, “Pyrrolothiazine and pyrrolothiazepine compounds having serotonin-2 receptor antagonistic and alpha-1-blocking action” (Daiichi Suntory Pharma Co., Ltd., priority 1997, dated 2006)

What was measured:
serotonin-2 receptors = test: Anti-serotonin (5-HT) action: 5-HT-induced contraction of isolated superior mesenteric artery; details: contraction by 10^−5 M 5-HT taken as 100%, guinea pig superior mesenteric artery
Procedure: (1) Anti-Serotonin (5-HT) Action
A preparation cut in a helical form was suspended under resting-tension of 0.3 g in a Magnus cylinder filled with the Tyrode solution which had been aerated with a gas mixture of 95% O2 and 5% CO2 and maintained at 37° C. Using an isometric transducer (“UL-10”, manufactured by SHINKOH K. K.) and a pressure preamplifier (“DSA-605A”, manufactured by SHINKOH K. K.), variations in tension were measured. The isometric tensions were recorded on a pen-writing recorder (“VP-6537A”, manufactured by NATIONAL K. K.). Taking the contraction induced by 10^−5 M serotonin (5-HT) as 100%, the percent contractions by 10^−5 M 5-HT in the presence of each test drug at 10^−7 M and 10^−6 M were determined as anti-5-HT action.

α1 receptors = test: Anti-α1 action: norepinephrine-induced tonic contraction of isolated thoracic aorta; details: tonic contraction by 10^−5 M norepinephrine taken as 100%, guinea pig thoracic aorta
Procedure: The thoracic aorta of each Hartley male guinea pig (body weight: 300–500 g) was excised. A preparation cut in a helical form was suspended under 1 g load in a Magnus cylinder filled with the Tyrode solution which had been aerated with a gas mixture of 95% O2 and 5% CO2 and maintained at 37° C. Using an isometric transducer (“TB-612J”, manufactured by Nihon Kohden Corporation) and a pressure preamplifier (“AP-620G”, manufactured by Nihon Kohden Corporation), variations in tension were measured. The isometric tensions were recorded on a thermal pen-writing recorder (“WT-647G”, manufactured by Nihon Kohden Corporation). Taking the tonic contraction induced by 10^−5 M norepinephrine (NE) as 100%, the percent contractions upon addition of each test drug at 10^−8 M and 10^−7 M were determined and recorded as α1 action.

## Cn1ccc2c1C(O)CCN(CCCN1CCN(c3ccc(F)cc3)CC1)S2(=O)=O (centres unmarked) [Compound 30, 2-[3-[4-(4-fluorophenyl)piperazin-1-yl]propyl]-5-hydroxy-6-methyl-3,4,5,6-tetrahydro-2H-pyrrolo[2,3-f][1,2]thiazepine 1,1-dioxide]
serotonin-2 receptors; test drug 10^−6 M
  Anti 5-HT action (% of Control): 37.2 % of Control
serotonin-2 receptors; test drug 10^−7 M
  Anti 5-HT action (% of Control): 83.5 % of Control
α1 receptors; test drug 10^−7 M
  Anti α1 action (% of Control): 88.0 % of Control
α1 receptors; test drug 10^−8 M
  Anti α1 action (% of Control): 102.3 % of Control

## Cn1ccc2c1C(=NO)CN(CCCN1CCC(C(=O)c3ccc(F)cc3)CC1)S2(=O)=O [Compound 26, 2-[3-[4-(4-fluorobenzoyl)piperidino]propyl]-4-hydroxyimino-5-methyl-2,3,4,5-tetrahydropyrrolo[2,3-e][1,2]thiazine 1,1-dioxide]
serotonin-2 receptors; test drug 10^−6 M
  Anti 5-HT action (% of Control): 18.2 % of Control
serotonin-2 receptors; test drug 10^−7 M
  Anti 5-HT action (% of Control): 54.6 % of Control
α1 receptors; test drug 10^−7 M
  Anti α1 action (% of Control): 73.1 % of Control
α1 receptors; test drug 10^−8 M
  Anti α1 action (% of Control): 99.6 % of Control

## Cn1ccc2c1C(=O)CCN(CCCN1CCC(C(=O)c3ccc(F)cc3)CC1)S2(=O)=O [Compound 22, 2-[3-[4-(4-fluorobenzoyl)piperidino]propyl]-6-methyl-3,4,5,6-tetrahydro-2H-pyrrolo[2,3-f][1,2]thiazepin-5-one 1,1-dioxide]
serotonin-2 receptors; test drug 10^−6 M
  Anti 5-HT action (% of Control): 21.3 % of Control
serotonin-2 receptors; test drug 10^−7 M
  Anti 5-HT action (% of Control): 75.3 % of Control
α1 receptors; test drug 10^−7 M
  Anti α1 action (% of Control): 64.9 % of Control
α1 receptors; test drug 10^−8 M
  Anti α1 action (% of Control): 91.2 % of Control

## Cn1ccc2c1C(=NO)CN(CCCN1CCN(c3ccc(F)cc3)CC1)S2(=O)=O [Compound 25, 2-[3-[4-(4-fluorophenyl)piperazin-1-yl]propyl]-4-hydroxyimino-5-methyl-2,3,4,5-tetrahydropyrrolo[2,3-e][1,2]thiazine 1,1-dioxide]
serotonin-2 receptors; test drug 10^−6 M
  Anti 5-HT action (% of Control): 19.6 % of Control
serotonin-2 receptors; test drug 10^−7 M
  Anti 5-HT action (% of Control): 69.8 % of Control
α1 receptors; test drug 10^−7 M
  Anti α1 action (% of Control): 24.1 % of Control
α1 receptors; test drug 10^−8 M
  Anti α1 action (% of Control): 65.3 % of Control

## Cn1ccc2c1C(=NO)CCN(CCCN1CCN(c3ccc(F)cc3)CC1)S2(=O)=O [Compound 27, 2-[3-[4-(4-fluorophenyl)piperazin-1-yl]propyl]-5-hydroxyimino-6-methyl-3,4,5,6-tetrahydro-2H-pyrrolo[2,3-f][1,2]thiazepine 1,1-dioxide]
serotonin-2 receptors; test drug 10^−6 M
  Anti 5-HT action (% of Control): 22.7 % of Control
serotonin-2 receptors; test drug 10^−7 M
  Anti 5-HT action (% of Control): 76.2 % of Control
α1 receptors; test drug 10^−7 M
  Anti α1 action (% of Control): 53.0 % of Control
α1 receptors; test drug 10^−8 M
  Anti α1 action (% of Control): 91.2 % of Control
